Columns and labels:
Cholinesterase = Cholinesterase (Equus caballus, UniProt P81908); experiment: Inhibition of equine serum BChE using butyrylthiocholine iodide as substrate incubated for 5 mins by Ellman's method
[1] = biological target: Amyloid-beta precursor protein (Homo sapiens) (UniProt P05067); experiment: Inhibition of self-mediated amyloid beta (1 to 42) (unknown origin) aggregation at 25 uM after 48 hrs by thioflavin T fluorescence assay relative to control
[2] = Antioxidant activity assessed as trolox equivalent of AAPH radical scavenging activity at 1 to 10 uM preincubated for 15 mins followed by AAPH challenge measured every min for 80 mins by ORAC-FL assay
[3] = Selectivity ratio of IC50 for equine serum BChE to IC50 for electric eel AChE
Acetylcholinesterase = Acetylcholinesterase (Electrophorus electricus, UniProt O42275); experiment: Inhibition of electric eel AChE using acetylthiocholine iodide as substrate incubated for 5 mins by Ellman's method
[4] = biological target: Amyloid-beta precursor protein (Homo sapiens) (UniProt P05067); experiment: Ratio of curcumin to compound for self-mediated amyloid beta (1 to 42) (unknown origin) aggregation at 25 uM after 48 hrs by thioflavin T fluorescence assay relative to control
[5] = biological target: Acetylcholinesterase (Electrophorus electricus) (UniProt O42275); experiment: Ratio of donepezil IC50 to compound IC50 for electric eel AChE using acetylthiocholine iodide as substrate incubated for 5 mins by Ellman's method
Acetylcholinesterase (Electrophorus electricus), sequence (O42275 24-633 limits assumed): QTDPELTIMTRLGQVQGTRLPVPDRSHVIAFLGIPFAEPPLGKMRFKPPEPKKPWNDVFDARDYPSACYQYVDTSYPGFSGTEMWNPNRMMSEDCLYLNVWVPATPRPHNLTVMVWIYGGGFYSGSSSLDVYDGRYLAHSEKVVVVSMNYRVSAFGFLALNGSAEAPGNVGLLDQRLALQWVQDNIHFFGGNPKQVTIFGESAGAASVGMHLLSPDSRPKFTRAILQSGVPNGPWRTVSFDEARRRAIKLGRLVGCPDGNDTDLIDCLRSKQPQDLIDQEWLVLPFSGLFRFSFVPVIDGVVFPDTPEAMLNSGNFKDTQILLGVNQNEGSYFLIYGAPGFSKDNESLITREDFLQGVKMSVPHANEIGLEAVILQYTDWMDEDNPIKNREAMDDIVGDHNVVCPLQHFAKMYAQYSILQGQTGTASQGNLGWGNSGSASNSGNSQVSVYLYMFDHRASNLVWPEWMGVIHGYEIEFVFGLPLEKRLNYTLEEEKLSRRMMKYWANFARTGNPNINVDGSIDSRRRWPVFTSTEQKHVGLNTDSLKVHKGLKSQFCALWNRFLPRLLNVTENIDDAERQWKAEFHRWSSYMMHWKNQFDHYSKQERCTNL

Cholinesterase, sequence (P81908 whole entry): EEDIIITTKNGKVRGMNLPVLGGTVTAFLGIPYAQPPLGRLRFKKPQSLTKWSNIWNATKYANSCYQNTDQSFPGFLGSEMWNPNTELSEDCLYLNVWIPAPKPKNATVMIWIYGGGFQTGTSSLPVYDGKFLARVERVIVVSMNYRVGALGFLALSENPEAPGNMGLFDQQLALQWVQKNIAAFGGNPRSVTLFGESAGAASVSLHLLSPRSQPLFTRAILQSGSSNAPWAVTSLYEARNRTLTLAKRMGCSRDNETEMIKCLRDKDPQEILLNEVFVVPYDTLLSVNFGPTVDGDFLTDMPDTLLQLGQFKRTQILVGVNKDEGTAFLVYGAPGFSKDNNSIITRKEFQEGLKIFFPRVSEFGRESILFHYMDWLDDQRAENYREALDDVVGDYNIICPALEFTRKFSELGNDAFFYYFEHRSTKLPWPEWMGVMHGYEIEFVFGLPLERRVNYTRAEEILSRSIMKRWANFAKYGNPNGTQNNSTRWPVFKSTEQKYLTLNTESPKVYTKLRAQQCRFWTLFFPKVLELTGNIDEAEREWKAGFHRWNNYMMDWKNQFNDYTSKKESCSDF
Amyloid-beta precursor protein (Homo sapiens), sequence (P05067 whole entry): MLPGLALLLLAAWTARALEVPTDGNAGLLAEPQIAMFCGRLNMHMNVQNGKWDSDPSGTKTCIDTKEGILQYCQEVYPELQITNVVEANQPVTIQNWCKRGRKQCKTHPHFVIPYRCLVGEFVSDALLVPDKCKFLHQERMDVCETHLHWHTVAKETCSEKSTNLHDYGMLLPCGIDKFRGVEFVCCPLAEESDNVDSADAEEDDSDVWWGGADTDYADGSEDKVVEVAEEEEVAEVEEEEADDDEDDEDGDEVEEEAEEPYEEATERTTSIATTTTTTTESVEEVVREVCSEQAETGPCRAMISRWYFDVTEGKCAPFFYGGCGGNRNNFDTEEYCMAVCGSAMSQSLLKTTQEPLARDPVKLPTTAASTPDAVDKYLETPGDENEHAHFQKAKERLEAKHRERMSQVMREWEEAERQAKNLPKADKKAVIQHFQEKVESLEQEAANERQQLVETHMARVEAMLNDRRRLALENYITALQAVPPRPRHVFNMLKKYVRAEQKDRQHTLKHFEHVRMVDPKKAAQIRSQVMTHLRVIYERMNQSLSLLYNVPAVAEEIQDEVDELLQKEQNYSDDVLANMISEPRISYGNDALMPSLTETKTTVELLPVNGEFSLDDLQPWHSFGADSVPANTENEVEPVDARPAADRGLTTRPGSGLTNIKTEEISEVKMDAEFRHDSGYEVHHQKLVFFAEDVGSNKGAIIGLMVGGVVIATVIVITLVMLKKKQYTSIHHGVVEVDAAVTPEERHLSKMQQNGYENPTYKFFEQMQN
Acetylcholinesterase, sequence (O42275 whole entry): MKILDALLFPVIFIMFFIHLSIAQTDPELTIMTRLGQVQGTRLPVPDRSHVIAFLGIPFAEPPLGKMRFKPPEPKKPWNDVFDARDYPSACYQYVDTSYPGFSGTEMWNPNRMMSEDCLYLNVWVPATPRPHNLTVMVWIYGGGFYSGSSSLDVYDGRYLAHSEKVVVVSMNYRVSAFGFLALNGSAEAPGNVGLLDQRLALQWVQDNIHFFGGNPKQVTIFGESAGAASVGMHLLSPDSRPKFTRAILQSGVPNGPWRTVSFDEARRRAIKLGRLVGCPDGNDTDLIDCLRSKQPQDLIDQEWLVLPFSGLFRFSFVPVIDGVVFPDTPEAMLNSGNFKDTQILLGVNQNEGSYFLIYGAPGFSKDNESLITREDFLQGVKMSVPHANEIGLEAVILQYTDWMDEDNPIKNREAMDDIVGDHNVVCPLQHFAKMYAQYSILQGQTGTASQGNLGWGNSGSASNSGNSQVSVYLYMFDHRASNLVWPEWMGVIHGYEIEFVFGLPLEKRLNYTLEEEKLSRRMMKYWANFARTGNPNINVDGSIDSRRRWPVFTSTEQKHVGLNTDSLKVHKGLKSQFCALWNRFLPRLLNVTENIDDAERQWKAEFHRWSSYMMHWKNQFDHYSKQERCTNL

| SMILES | IC50 (Cholinesterase) | inhibition [1] | Activity [2] | Ratio IC50 [3] | IC50 (Acetylcholinesterase) | Ratio [4] | Ratio IC50 [5] |
| --- | --- | --- | --- | --- | --- | --- | --- |
| COc1cc(CNCCN2CCN(Cc3ccccc3)CC2)ccc1O | 18.3 nM | 71.9% | 1.28 equiv | 0.1 | 181 nM |  |  |
| c1ccc(CN2CCN(CCCCNCc3cccnc3)CC2)cc1 | 104 nM | 69.3% | 0.64 equiv | 0.78 | 134 nM |  |  |
| c1ccc(CC2CCN(CCCCNCc3cccnc3)CC2)cc1 | 34 nM | 78.6% | 1.59 equiv | 4.4 | 7.72 nM | 1.51 | 6 |
| COc1ccc(CNCCCCN2CCC(Cc3ccccc3)CC2)cc1OC | 49.1 nM | 80.7% | 1.06 equiv | 0.24 | 202 nM | 1.51 |  |
| COc1cc(CNCCCN2CCN(C(c3ccccc3)c3ccccc3)CC2)ccc1O |  | 54.2% | 2.68 equiv |  |  |  |  |
| c1ccc(CN2CCN(CCNCc3cccnc3)CC2)cc1 | 129 nM | 56.8% | 1.02 equiv | 0.92 | 140 nM |  |  |
| COc1cc(CNCCCN2CCN(Cc3ccccc3)CC2)cc(OC)c1OC | 41.5 nM | 79.7% | 1.31 equiv | 0.5 | 81.8 nM | 1.71 |  |
| COc1cc(CNCCCCN2CCC(Cc3ccccc3)CC2)cc(OC)c1OC | 16.7 nM | 85.4% | 2.45 equiv | 1.3 | 12.8 nM | 1.51 |  |
| COc1ccc(CNCCCCN2CCN(Cc3ccccc3)CC2)cc1OC | 142 nM | 67.7% | 0.61 equiv | 0.86 | 163 nM |  |  |
| COc1ccc(CNCCN2CCC(Cc3ccccc3)CC2)cc1OC | 77.7 nM | 54.7% | 0.61 equiv | 0.42 | 182 nM |  |  |
| COc1cc(CNCCCCN2CCN(Cc3ccccc3)CC2)ccc1O | 13.9 nM | 72.4% | 1.64 equiv | 0.1 | 136 nM |  |  |
| COc1cc(CNCCCN2CCN(C(c3ccccc3)c3ccccc3)CC2)cc(OC)c1OC |  | 68.2% | 2.47 equiv |  |  |  |  |
| COc1cc(CNCCCCN2CCC(Cc3ccccc3)CC2)ccc1O | 3.87 nM | 71.3% | 4.45 equiv | 0.33 | 11.5 nM |  |  |
| c1ccc(CN2CCN(CCCNCc3cccnc3)CC2)cc1 | 209 nM | 63% | 0.65 equiv | 9.03 | 23.1 nM |  |  |
| COc1ccc(CNCCCN2CCN(C(c3ccccc3)c3ccccc3)CC2)cc1OC |  | 65.6% | 2.21 equiv |  |  |  |  |
| COc1cc(CNCCN2CCC(Cc3ccccc3)CC2)ccc1O | 4.2 nM | 84.4% | 4.04 equiv | 0.1 | 38.3 nM | 1.51 |  |

| SMILES | IC50 (Cholinesterase) | inhibition [1] | Activity [2] | Ratio IC50 [3] | IC50 (Acetylcholinesterase) | Ratio [4] | Ratio IC50 [5] |
| --- | --- | --- | --- | --- | --- | --- | --- |
| COc1ccc(CNCCCCN2CCN(C(c3ccccc3)c3ccccc3)CC2)cc1OC |  | 57.8% | 1.35 equiv |  |  |  |  |
| COc1cc(CNCCN2CCN(C(c3ccccc3)c3ccccc3)CC2)ccc1O |  | 43.5% | 2.31 equiv |  |  |  |  |
| COc1cc(CNCCN2CCN(C(c3ccccc3)c3ccccc3)CC2)cc(OC)c1OC |  | 68.7% | 2.38 equiv |  |  |  |  |
| COc1cc(CNCCCCN2CCN(C(c3ccccc3)c3ccccc3)CC2)cc(OC)c1OC |  | 57.3% | 1.63 equiv |  |  |  |  |
| COc1cc(CNCCCN2CCN(Cc3ccccc3)CC2)ccc1O | 18.8 nM | 67.2% | 1.99 equiv | 1.38 | 13.5 nM |  |  |
| COc1cc(CNCCCN2CCC(Cc3ccccc3)CC2)cc(OC)c1OC | 23.1 nM | 78.2% | 1.41 equiv | 2.69 | 8.56 nM | 1.51 |  |
| COc1cc(CNCCN2CCC(Cc3ccccc3)CC2)cc(OC)c1OC | 53.4 nM | 75% | 1.38 equiv | 1.48 | 35.8 nM |  |  |
| COc1ccc(CNCCN2CCN(Cc3ccccc3)CC2)cc1OC | 274 nM | 80.7% | 0.95 equiv | 0.4 | 682 nM | 1.71 |  |
| COc1ccc(CNCCCN2CCC(Cc3ccccc3)CC2)cc1OC | 190 nM | 84.4% | 1.22 equiv | 2.52 | 75.3 nM | 1.51 |  |
| COc1cc(CNCCCN2CCC(Cc3ccccc3)CC2)ccc1O | 7.61 nM | 88% | 3.74 equiv | 1.11 | 6.83 nM | 1.51 | 7 |
| c1ccc(CC2CCN(CCCNCc3cccnc3)CC2)cc1 | 81.7 nM | 88.8% | 1.18 equiv | 38.4 | 2.13 nM | 1.51 | 22 |
| COc1ccc(CNCCCN2CCN(Cc3ccccc3)CC2)cc1OC | 331 nM | 79.7% | 1.4 equiv | 2.94 | 112 nM | 1.71 |  |
| COc1cc(CNCCCCN2CCN(Cc3ccccc3)CC2)cc(OC)c1OC | 32.7 nM | 80.4% | 1.24 equiv | 0.23 | 138 nM | 1.71 |  |
| COc1cc(CNCCN2CCN(Cc3ccccc3)CC2)cc(OC)c1OC | 75.1 nM | 75.5% | 2.77 equiv | 0.77 | 96.5 nM |  |  |
| COc1ccc(CNCCN2CCN(C(c3ccccc3)c3ccccc3)CC2)cc1OC |  | 67.6% | 1.77 equiv |  |  |  |  |
| c1ccc(CC2CCN(CCNCc3cccnc3)CC2)cc1 | 101 nM | 84.4% | 1.32 equiv | 3.07 | 32.8 nM | 1.51 |  |
